Structures are written as SMILES.

In this assay the test system is human Peripheral Blood Mononuclear Cell (PMBC). The experiment in a line: PBMC assay: cytokine (IFN-alpha) stimulation at 24 hours. The assay is classed as cell-based. To be noted: minimum concentration for induction of IFN-alpha = 3-fold over background. The method, then:
Assays were conducted to determine cytokine stimulation at 24 hours from human Peripheral Blood Mononuclear Cell (PMBC) using the compounds of the present invention. The assays were run in duplicate, with 8-point, half-log dilution curves. The compounds of the present invention were diluted from 10 mM DMSO solution. Cell supernatants are assayed directly for IFNa and 1:10 dilution for TNFa. The assays were performed in a similar fashion as described in Bioorg. Med. Chem. Lett. 16, 4559, (2006). Specifically, cryo-preserved PBMCs were thawed and seeded 96 well plates with 750,000 cells/well in 190 μL/well cell media. The PBMCs were then incubated for 1 hour at 37° C. at […]. Then, the compounds of the present invention were added in 10 μL cell media at 8 point, half-log dilution titration. The plates were incubated at 37° C. and 5% CO2 for 24 hours and then spinned at 1200 rpm for 10 min, which was followed by collecting supernatant and storing the same at −80° C. Cytokine secretion was assayed with Luminex and Upstate multi-plex kits, using a Luminex analysis instrument. IFN MEC value for a compound was the minimum concentration at which IFN-a production stimulated by the compound reached three fold above background, as determined using the assay method above.

For the compound `COCCOc1cc2c([nH]c(=O)n2Cc2ccc(-c3ccc(CN4CCCC4)cc3)cc2)c(N)n1` [AX], the minimal effective concentration (read-out: MEC) fell in the range of 0.001 to 0.009 µM. As for `CCCCOc1nc(N)c2[nH]c(=O)n(Cc3cccc(-c4ccccc4CN4CCCC4)c3)c2n1` [A], the MEC entry is reported as “d (d: 100 nM-1000 nM)”.
